What was measured:
[1] = system: mBSA-induced DTH granuloma (DTH GRA) lesion; assay: Delayed Type Hypersensitivity Granuloma Assay (DTH GRA) model for inflammation; type: in vivo, mouse; details: for % Inhibition Dry Weight: granuloma dry weight; for % Inhibition Dry Weight / % Inhibition Wet Weight: excised after nine days; for % Inhibition Wet Weight: granuloma wet weight
From the text: Compounds of Formula 3 and a compound of Formula 2 have been tested in a Delayed Type Hypersensitivity Granuloma Assay (DTH GRA) model for inflammation. This assay is described by Dunn, C. J. et al., "Development of a delayed-type hypersensitivity granuloma model in the mouse for the study of chronic immune-mediated inflammatory disease," Agents and Actions, 27, 3/4 (1989) and "Murine Delayed-Type Hypersensitivity Granuloma," Int. J. Immunopharmc., 12, 8, 899-904 (1990).
Briefly, mBSA-sensitized mice have a DTH granuloma (DTH GRA) lesion induced by subcutaneously implanting a mBSA-soaked filter which is excised after nine days. Compounds are administered to the mice to determine their effect on the lesions. The results are recorded as percent inhibition. […] Inhibition of 10 to 20% is considered to indicate anti-granuloma activity. Greater than 30% inhibition is good activity.
The compound of Formula 2 tested was 1-((ethoxy-methylphosphinyl))-4-(3-methyl-6-phenyl-4(3H)-pyrimidinone-2-yl)-butane phosphonic acid diethyl ester, Example 16 and the DTH GRA data obtained for this compound was 44.4%.

[2] = system: calcium channel; assay: in vitro model which identifies calcium channel blocking activity (KCl-induced calcium influx, INDO-1, human dermal fibroblasts); type: cell-based; details: 40 mM KCl, human dermal fibroblasts CRL 1445
Description: These compounds were also tested in an in vitro model which identifies calcium channel blocking activity. In this test, adherent human dermal fibroblasts (CRL 1445, ATCC, Bethesda, Md.) were allowed to attach to glass cover slips placed in 6 well culture plates. Cultures were maintained in DMEM supplemented with antibiotics and 10% fetal bovine serum (FBS) until confluent.
The fibroblasts were washed once with Dulbecco's phosphate buffered saline to remove the culture medium and FBS. The calcium probe, INDO-1 AM ([…]) in RPMI 1640 without phenol red and supplemented with 10 mM hepes and 2 mM glutamine was added to the cells for 1 hour at 37° C. The cells were washed twice with RPMI1640 and remained in this medium until calcium measurements were obtained with the Meridian ACAS digital image microscope.
The cover slip with the attached fibroblasts was placed in a chamber with 1 ml of RPMI on the microscope stage, and maintained at 37° C. The cells were exposed to a laser beam set at 310 nm and fluorescent emission was measured at 485 nm and 405 nm. Baseline resting calcium levels of the fibroblasts were measured for 30 seconds after which 40 mM KCl was added to the medium in the holder. Data was collected at 40 second intervals for a total of 300 to 400 seconds. Maximal calcium influx is usually reached within 40 seconds after the addition of KCl, and begins to slowly decrease to ~50% of the maximal level. The intracellular calcium concentrations remain elevated for at least 400 seconds.
In order to measure the inhibitory effect of the test compounds on changes in intracellular calcium, the compound was added to the cells maintained in RPMI medium for a minimum of 20 minutes before the fibroblast membranes were depolarized with KCl as outlined above. The mean increase in intracellular calcium was then compared to control fibroblasts which had been pretreated for similar lengths of time with DMSO and exposed to KCl. A calcium standard curve was obtained on the day of the experiments in order to generate absolute intracellular calcium concentrations if needed.
Two known calcium channel blockers, D600 and nifedipine were also tested to compare the relative efficacies of the "standard" compounds with the novel diphosphonates. For instance, D600 (available from the Sigma Co., St. Louis, Mo.) inhibited calcium influx into a cell by 83 to 100% at 10^-5 molar concentration. The Control is a sub-structure of Example 9 (k) not having the bisphosphonate teralkyl ester portion.

SMILES | % Inhibition Dry Weight ([1]; 10 mg/kg PO) [%] | % Inhibition Wet Weight ([1]; 10 mg/kg PO) [%] | also measured
Cc1cc(Oc2ccc(F)cc2F)nc(NCC(P2(=O)OCC(C)(C)CO2)P2(=O)OCC(C)(C)CO2)n1 [Ex. 18 (b), (2-((4-(2,4-difluorophenoxy)-6-methyl-2-pyrimidinyl)amino)ethylidene)bis(2,2'-(5,5-dimethyl-2,2'-dioxide-1,3,2-dioxaphosphorphinane))] | 58.3 | 70.6 | 
Cc1cc(N2CCOCC2)nc(NCC(P2(=O)OCC(C)(C)CO2)P2(=O)OCC(C)(C)CO2)n1 [Ex. 21 (c), (2-((4-(4-morpholinyl)-6-methyl-2-pyrimidinyl)amino)ethylidene)bis(2,2'-(5,5-dimethyl-2,2'-dioxide-1,3,2-dioxaphosphorphinane))] | 62.5 | 68.6 | 
CCOP(=O)(OCC)C(CNc1nc(C)cc(Oc2ccc(Cl)cc2Cl)n1)P(=O)(OCC)OCC [Ex. 25 (k), (2-((4-(2,4-dichlorophenoxy)-6-methyl-2-pyrimidinyl)amino)ethylidene)bisphosphonic acid, tetraethyl ester] |  |  | % Inhibition Dry Weight ([1]; 100 mg/kg, administered sc): 39.6%; % Inhibition Wet Weight ([1]; 100 mg/kg, administered sc): 40.5%; % Inhibition Mean SD (calcium channel activity) ([2]; 10^-5 M): 92 ± 5%; % Inhibition Mean SD (calcium channel activity) ([2]; 10^-6 M): 75 ± 9%; % Inhibition Mean SD (calcium channel activity) ([2]; 10^-7 M): 35 ± 19%
Cc1cc(Oc2ccc(Br)cc2Br)nc(NCC(P2(=O)OCC(C)(C)CO2)P2(=O)OCC(C)(C)CO2)n1 [Ex. 19 (d), (2-((4-(2-,4-dibromophenoxy)-6-methyl-2-pyrimidinyl)amino)ethylidene)bis(2,2'(5,5-dimethyl-2,2'-dioxide-1,3,2-dioxaphosphorphinane))] | 25.0 | 12.1 | 
CCOP(C)(=O)C(CCc1nc(-c2ccccc2)cc(=O)n1C)P(=O)(OCC)OCC (stereo not drawn) [Example 16, 1-(Ethoxymethylphosphinyl)-3-(3-methyl-6-phenyl14(3H)-pyrimidinone-2-yl)-propane phosphonic acid diethyl ester] |  |  | DTH GRA percent inhibition ([1]; dose, route and wet/dry weight not given): 44.4%
Cc1cc(Oc2ccc(Cl)cc2Cl)nc(N)n1 [Control, reference compound] |  |  | % Inhibition Mean SD (calcium channel activity) ([2]; 10^-5 M): 12%
Cc1cc(Oc2c(F)cccc2[N+](=O)[O-])nc(NCC(P2(=O)OCC(C)(C)CO2)P2(=O)OCC(C)(C)CO2)n1 [Ex. 17 (a), (2-((4-(2-fluoro-6-nitrophenoxy)-6-methyl-2-pyrimidinyl)amino)ethylidene)bis(2,2'-(5,5-dimethyl-2,2'-dioxide-1,3,2-dioxaphosphorphinane))] | 39.0 | 47.9 | 
COc1cc(C)nc(NCC(P2(=O)OCC(C)(C)CO2)P2(=O)OCC(C)(C)CO2)n1 [Ex. 26 (l), (2((4-(methyl)-6-methoxy-2-pyrimidinyl)amino)ethylidene)bis(2,2'-(5,5-dimethyl-2,2'-dioxide-1,3,2-dioxaphosphorphine))] | 44.8 | 41.9 | 
CCOP(=O)(OCC)C(CNc1nc(C)cc(Oc2ccc(Cl)cc2Cl)n1)P(=O)(OCC)OCC [(f), (2-((4-2,4-dichlorophenoxy-6-methyl-2-pyrimidinyl)amino)ethylidene)bisphosphonic acid tetraethyl ester] | 39.7 | 45.9 | 
Cc1cc(Oc2ccc(C#N)cc2)nc(NCC(P2(=O)OCC(C)(C)CO2)P2(=O)OCC(C)(C)CO2)n1 [Ex. 20 (e), (2-((4-(4-cyanophenoxy)-6-methyl-2-pyrimidinyl)amino)ethylidene)bis(2,2'-(5,5-dimethyl-2,2'-dioxide-1,3,2-dioxaphosphorphinane))] | 41.8 | 27.4 | 

— patent US5635495A, “Pyrimidine bisphosphonate esters and (alkoxymethylphosphinyl)alkyl phosphonic acids as anti-inflammatories” (The Upjohn Company, priority 1995, dated 1997)
